The record followed here is patent publication US20100324017A1, “ACYLGUANIDINE DERIVATIVE” (priority 2007, published 2010).

Counter-ions that a name gives are not always drawn.

As a reminder, the Ki is the equilibrium dissociation constant of an inhibitor or competing ligand from its target. A high value points to a looser hold on the target.

The target in this assay is T1, human 5-HT5A receptor (Homo sapiens, UniProt P47898).
T1 construct: expressed in transfected cells; membrane preparation
T1 sequence (P47898 whole entry): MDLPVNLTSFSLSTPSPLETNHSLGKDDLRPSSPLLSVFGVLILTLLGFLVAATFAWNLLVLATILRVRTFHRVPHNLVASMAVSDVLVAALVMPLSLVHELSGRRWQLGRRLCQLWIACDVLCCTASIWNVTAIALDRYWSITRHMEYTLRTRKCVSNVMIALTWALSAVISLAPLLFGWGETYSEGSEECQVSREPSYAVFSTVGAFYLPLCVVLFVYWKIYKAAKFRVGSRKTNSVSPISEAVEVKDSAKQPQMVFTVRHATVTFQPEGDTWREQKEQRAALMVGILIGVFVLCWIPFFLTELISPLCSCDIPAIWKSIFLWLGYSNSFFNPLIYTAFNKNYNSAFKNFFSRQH
Put plainly: Test of human 5-HT5A receptor binding inhibition ([3H]5-CT, HEK293 cell membrane). The settings on record: [3H]5-CT binding, membrane of HEK293 cell expressing human 5-HT5A receptor. Here is the method: An ORF of a human 5-HT5A receptor (Genbank AF498985) was cloned from a human hippocampal cDNA library, and then inserted into a pCR2.1 vector (Invitrogen), and Escherichia coli having the plasmid was mass cultured. Next, the human 5-HT5A receptor full-length cDNA sequence was analyzed, recombined into a pCDNA3.1 vector (Invitrogen) as an expression vector, and mass cultured. A human embryonic kidney-induced cell HEK293 cell (ATCC) was seeded, and the resulting expression plasmid (1 μg) above was added thereto together with LIPOFECTAMINE 2000 (Invitrogen; 2 μl), a gene was introduced into the HEK293 cell, and then Geneticin (G418 sulfate 500 μg/ml; Kanto Chemical Co., Inc.) was used as a drug-resistant marker to screen the expressing cell. Thus prepared gene-expressing recombinant cell was cultured in a D-MEM, 10% FCS, 1% Pc./Sm., 500 μg/ml G418 culture medium for 3 days. This experimental operation was conducted in accordance with a gene operation experiment manual of a known method (Sambrook, J. et al, Molecular Cloning-A Laboratory Manual“, Cold Spring Harabor Laboratory, NY, 1989), etc., an instruction appended in a reagent or the like.
(1) Preparation of a Membrane from an HEK293 Cell Forcibly Expressing a Human 5-HT5A Receptor
An HEK293 cell forcibly expressing a human 5-HT5A receptor was cultured in an F500 plate, and scraped for collection using a scraper. After centrifugation, the precipitates were collected and an incubation buffer (50 mM Tris (HCl) PH 7.4, 10 mM Mg504, 0.5 mM EDTA) was added thereto. After homogenization, it was further centrifuged, an incubation buffer was added to the precipitate, and the mixture was well suspended. These operations were repeatedly conducted, the protein concentration was then measured, and the preparation of a membrane was completed.
(2) Experiment on Human 5-HT5A Receptor Binding Inhibition
The compound to be tested (0.3 to 300 nM) and a 100 μM 5-CT solution in DMSO were added to a 96-well plate at 2 μl/well. The number of the wells to be measured under the same condition in one experiment was set at 2, and an average value thereof was used. It was suspended in an incubation buffer, and a HEK293 cell membrane forcibly expressing a human 5-HT5A receptor that had been prepared at 200 μg/ml was added thereto at 100 μl/well. The mixture was incubated at room temperature for 15 minutes, and a [^3H]5-CT solution (2 nM [^3H]5-CT, an incubation buffer) was then added thereto at 100 μl/well.
Separate from this, 100 μl of the solution was dispersed to a liquid scintillation vial, 2 ml of Aquasol II (registered trademark) was added thereto, followed by stirring, and the radioactivity was then measured with a liquid scintillation counter. The solution was incubated at 37° C. for 60 minutes. The reaction liquid was sucked to a 96-well GF/C filter plate that had been preliminarily treated with 0.2% polyethyleneimine, and washed six times with an ice-cooled 50 mM Tris (pH 7.5) buffer. The GF/C filter plate was dried.
MicroscintTMPS (registered trademark) was added thereto at 40 μl/well. The radioactivity remaining on the GF/C filter plate was measured in a top counter.
For the inhibitory activity for the binding of the [^3H]5-CT by the compound to be tested in each experiment, IC50 value was calculated by taking the radioactivity when only DMSO was added as 0% inhibition, and the radioactivity when 1 μM 5-CT was added as 100% inhibition. Apart from this, a Ki value was calculated from the Kd value of the [^3H]5-CT that had been determined by Scatchard analysis.
Ki=IC50 (1+Concentration of the ligands added/Kd (4.95 nM))
The compound `N/C(=N\C(=O)c1ccc2c3ccccc3n(C3CCOCC3)c2c1)NCCc1ccccc1` [Example 196] came in with a Ki of no more than 50 nM.
The figure for `N/C(=N\C(=O)c1ccc2c3ccccc3n(C3CCOCC3)c2c1)NC1CCOCC1` [Example 182] is no more than 50 nM; for `Cc1ccsc1Cn1c2ccccc2c2ccc(C(=O)N=C(N)N)cc21` [Example 177] it is no more than 50 nM.
The figure for `COc1cccc(OC)c1CNC(N)=NC(=O)c1ccc2c3ccccc3n(C3CCOCC3)c2c1` [Example 212] is no more than 50 nM.
Regarding `COc1ccccc1CN/C(N)=N/C(=O)c1ccc2c3ccccc3n(C3CCOCC3)c2c1` [Example 195], the Ki was no more than 50 nM.
`N/C(=N\C(=O)c1ccc2c3ccccc3n(C3CCOCC3)c2c1)NC[C@@H]1CCCO1` [Example 187]: the Ki is no more than 50 nM.
The value for `CO[C@H]1CC[C@@H](n2c3ccccc3c3ccc(C(=O)N=C(N)N)cc32)CC1` [Example 148] was no more than 50 nM; that for `NC(N)=NC(=O)c1ccc2c3ccccc3n([C@@H]3CCNC3)c2c1` [Example 175] was no more than 50 nM.
The figure for `N/C(=N\C(=O)c1ccc2c3ccccc3n(C3CCOCC3)c2c1)NCC1CCOCC1` [Example 206] is no more than 50 nM; for `NC(N)=NC(=O)c1ccc2c3ccccc3n(Cc3ccc(F)s3)c2c1` [Example 116] it is no more than 50 nM; for `N/C(=N\C(=O)c1ccc2c3ccccc3n(C3CCOCC3)c2c1)NCC1CCCC1` [Example 205] it is no more than 50 nM.
`N/C(=N\C(=O)c1ccc2c3ccccc3n(C3CCOCC3)c2c1)NC[C@H]1CCCO1` [Example 188] displayed a Ki of no more than 50 nM.
The figure for `N/C(=N\C(=O)c1ccc2c3ccccc3n(C3CCOCC3)c2c1)NCc1ccccc1` [Example 159] is 1.6 nM; for `N/C(=N\C(=O)c1ccc2c3ccccc3n(C3CCOCC3)c2c1)NCC1CCCCC1` [Example 204] it is no more than 50 nM; for `N/C(=N/C(=O)c1ccc2c3ccccc3n(C3CCOCC3)c2c1)NCCO` [Example 126] it is no more than 50 nM.
`NC(N)=NC(=O)c1ccc2c3ccccc3n(C(CF)CF)c2c1` [Example 160] yielded a Ki of no more than 50 nM.
The value for `COc1ccc(CN/C(N)=N/C(=O)c2ccc3c4ccccc4n(C4CCOCC4)c3c2)cc1` [Example 193] was no more than 50 nM.
`Cc1cccc2c1c1c(F)cc(C(=O)N=C(N)N)cc1n2C1CCOCC1` [Example 145] had a Ki of no more than 50 nM.
The figure for `NC(N)=NC(=O)c1ccc2c(c1)[nH]c1ccccc12` [Example 2, N-(diaminomethylene)-9H-carbazole-2-carboxamide] is 2.8 nM.
The figure for `NC(N)=NC(=O)c1ccc2c3ccccc3n(-c3ccccn3)c2c1` [Example 102] is 5.3 nM; for `NC(N)=NC(=O)c1ccc2c3c(F)ccc(F)c3n(C3CCOCC3)c2c1` [Example 140] it is no more than 50 nM.
The value for `N/C(=N\C(=O)c1ccc2c3ccccc3n(C3CCOCC3)c2c1)NCc1ccco1` [Example 179] was no more than 50 nM; that for `N/C(=N\C(=O)c1ccc2c3ccccc3n(C3CCOCC3)c2c1)NCc1cccs1` [Example 180] was no more than 50 nM.
Take `NC(N)=NC(=O)c1ccc2c3ccc(F)cc3n(C3CCOCC3)c2c1` [Example 114]: the Ki is no more than 50 nM.
In turn, `NC(N)=NC(=O)c1ccc2c3c(Cl)cccc3n(C3CCOCC3)c2c1` [Example 115] showed an inhibition constant (Ki) of no more than 50 nM.
On to `N/C(=N\C(=O)c1ccc2c3ccccc3n(C3CCOCC3)c2c1)Nc1ccccc1` [Example 181], for which the Ki was no more than 50 nM.
The value for `N/C(=N\C(=O)c1ccc2c3ccccc3n(C3CCOCC3)c2c1)NC1CC1` [Example 164] was no more than 50 nM.
The figure for `NC(N)=NC(=O)c1ccc2c3ccccc3n([C@H]3CC[C@@H](F)CC3)c2c1` [Example 143] is no more than 50 nM.
In turn, `CC(C)n1c2cc(C(=O)N=C(N)N)ccc2c2c(O)cccc21` [Example 152] gave a Ki of no more than 50 nM.
Take `NC(N)=NC(=O)c1ccc2c3ccccc3n(C3CCOCC3)c2c1` [Example 144]: the Ki was no more than 50 nM.
The value for `CSc1cccc2c1c1ccc(C(=O)N=C(N)N)cc1n2C1CCOCC1` [Example 147] was no more than 50 nM; that for `CC(C)S(=O)(=O)n1c2ccccc2c2ccc(C(=O)N=C(N)N)cc21` [Example 28] was 4.5 nM.
The figure for `COCCCN/C(N)=N/C(=O)c1ccc2c3ccccc3n(C3CCOCC3)c2c1` [Example 162] is no more than 50 nM.
In turn, `CC(C)N/C(N)=N\C(=O)c1ccc2c3ccccc3n(C3CCOCC3)c2c1` [Example 149] had a Ki of no more than 50 nM.
The value for `N#CCN1CCC(n2c3ccccc3c3ccc(C(=O)N=C(N)N)cc32)CC1` [Example 191] was no more than 50 nM; that for `NC(N)=NC(=O)c1cc(F)c2c3ccccc3n(C3CCOCC3)c2c1` [Example 11, N-(diaminomethylene)-4-fluoro-9-(tetrahydro-2H-pyran-4-yl)-9H-carbazole-2-carboxamide hydrochloride] was no more than 50 nM; that for `N/C(=N\C(=O)c1ccc2c3ccccc3n(C3CCOCC3)c2c1)NCC1COCCO1` (centres unmarked) [Example 186] was no more than 50 nM.
The figure for `CN/C(N)=N/C(=O)c1ccc2c3ccccc3n(C3CCOCC3)c2c1` [Example 120] is 2.2 nM; for `CC(C)C(=O)n1c2ccccc2c2ccc(C(=O)N=C(N)N)cc21` [Example 27] it is 0.66 nM; for `NC(N)=NC(=O)c1ccc2c3ccccc3n(C3CCN(c4ccccc4)CC3)c2c1` [Example 198] it is no more than 50 nM.
For the compound `CC(C)n1c2ccccc2c2ccc(C(=O)N=C(N)N)cc21` [Example 1, N-(diaminomethylene)-9-isopropyl-9H-carbazole-2-carboxamide], the Ki came to 0.69 nM.
In the case of `COCCN/C(N)=N/C(=O)c1ccc2c3ccccc3n(Cc3cccs3)c2c1` [Example 210], the Ki is no more than 50 nM.
The figure for `Cc1cc(Cn2c3ccccc3c3ccc(C(=O)N=C(N)N)cc32)no1` [Example 141] is no more than 50 nM; for `NC(N)=NC(=O)C1CCc2c(n(-c3ccccc3)c3ccccc23)C1` (centres unmarked) [Example 220] it is no more than 50 nM.
